Data from US20160237059A1, “HETEROCYCLIC SUBSTITUTED TRIFLUOROMETHYL PYRIMIDINONES AND THEIR USE” (BAYER PHARMA AKTIENGESELLSCHAFT, priority 2013, published 2016).
Counter-ions that a name gives are not always drawn.

Assays:
human CCR2 = target: T1, human CCR2 (Homo sapiens, UniProt P41597); assay: Functional Ca2+ release test (B-1); type: cell-based; settings: Chem-1 cell line transfected with human CCR2; 50% inhibition of the MCP-1 effect, MCP-1 at EC50 (about 5 nM); in some cases means of several determinations
T1 construct: host or cells: Chem-1 cell line
T1 sequence (P41597 1-360 isoform P41597-2): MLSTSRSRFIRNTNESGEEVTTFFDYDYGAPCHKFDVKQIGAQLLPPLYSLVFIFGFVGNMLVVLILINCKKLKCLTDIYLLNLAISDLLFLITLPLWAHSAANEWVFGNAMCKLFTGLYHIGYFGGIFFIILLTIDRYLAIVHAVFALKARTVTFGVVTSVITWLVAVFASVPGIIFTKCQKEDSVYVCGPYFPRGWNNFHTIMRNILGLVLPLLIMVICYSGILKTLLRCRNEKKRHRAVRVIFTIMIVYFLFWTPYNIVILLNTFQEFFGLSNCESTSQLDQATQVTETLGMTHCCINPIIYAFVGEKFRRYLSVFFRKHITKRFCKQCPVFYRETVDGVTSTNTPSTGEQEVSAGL
Method in brief: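 Inhibition of MCP-1-evoked Ca2+ release was measured over 120 s by fluorescence imaging in Fluo-4-loaded, human CCR2-transfected Chem-1 cells. Compounds, tested in 10-point 1:3.16 series, were added 10 min before agonist at its EC50 (typically about 5 nM). IC50 values were obtained by 4-parameter logistic fitting.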

murine CCR2 = target: T2, murine CCR2 (Mus musculus, UniProt P51683); assay: Functional β-arrestin recruiting test with human MCP-1 (B-2a); type: cell-based; settings: U2OS β-arrestin cell line transfected with murine CCR2; agonist human MCP-1 at EC50 (about 3 nM); in some cases means of several determinations
T2 construct: host or cells: U2OS β-arrestin cell line
Method: The antagonistic action of test substances on CCR2 was determined in a β-arrestin test. The PathHunter β-arrestin GPCR test system (DiscoveRx Corporation, Ltd.) is a cell-based functional method for detecting binding of β-arrestin to an activated receptor. The molecular basis is a […] complementation measured by the enzymatic conversion of a chemiluminescent substrate. The test cell used was a U2OS β-arrestin cell line transfected with murine CCR2 (93-0543C3, DiscoveRx Corporation, Ltd.).
The test substances were dissolved in dimethyl sulphoxide (DMSO) at a concentration of 10 mM and serially diluted with DMSO in steps of 1:3.16 for a 10-point dose/activity analysis. According to the desired test concentrations, the substances were pre-diluted in Tyrode with 2 mM CaCl2 and 0.05% BSA.
The cells, cultivated in MEM Eagle (supplemented with 10% FCS, 50 U/ml of penicillin, 50 μg/ml of streptomycin, 250 μg/ml of hygromycin and 500 μg/ml of geniticin), were sown at 2000 cells/25 μl in 384 well, μCLEAR/black cell culture plates from Greiner (#781092) and incubated at 37° C. for 24 h. The sowing medium consisted of Opti-MEM (supplemented with 1% FCS, 50 U/ml of penicillin and 50 μg/ml of streptomycin). The cells were pre-incubated for 10 min with 10 μl of the test substances diluted in buffer, and 10 μl of agonist solution [human MCP-1 (PeproTech, #300-04) in Tyrode with 0.05% BSA) were then added. The human MCP-1 was employed at the concentration which corresponds to the EC50 which had been determined in a preliminary test (usually about 3 nM). After 90 min of incubation at 37° C., the solution was removed, and recruitment of β-arrestin to CCR2 was detected with the aid of the PathHunter detection reagent (93-001, DiscoveRx Corporation, Ltd.) according to the instructions of the manufacturer. Luminescence was measured after an incubation time of 60 min using a proprietary luminescence imaging measuring instrument. The molar concentration of the test substance which caused 50% inhibition of the MCP-1 effect (IC50) was determined using a 4-parameter logistic function (Hill function).

T2 sequence (P51683 whole entry): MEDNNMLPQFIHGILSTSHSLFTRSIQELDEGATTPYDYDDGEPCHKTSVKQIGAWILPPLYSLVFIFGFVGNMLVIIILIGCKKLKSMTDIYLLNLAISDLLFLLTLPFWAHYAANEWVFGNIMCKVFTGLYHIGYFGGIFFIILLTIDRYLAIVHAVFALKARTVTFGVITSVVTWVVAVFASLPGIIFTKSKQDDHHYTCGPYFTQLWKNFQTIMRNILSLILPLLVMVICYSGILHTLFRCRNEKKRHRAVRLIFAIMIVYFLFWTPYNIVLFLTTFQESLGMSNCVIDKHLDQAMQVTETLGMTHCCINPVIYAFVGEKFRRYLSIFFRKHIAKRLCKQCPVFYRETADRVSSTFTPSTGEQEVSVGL

Compound	IC50 (human CCR2) [nM]	IC50 (murine CCR2) [nM]
Nc1cccc(-c2nc(C(F)(F)F)c(Oc3ccc(Cl)c(Cl)c3)c(=O)[nH]2)n1 [Example 43, 2-(6-aminopyridin-2-yl)-5-(3,4-dichlorophenoxy)-6-(trifluoromethyl)pyrimidin-4(3H)-one]	6.6	220
Nc1oc(=O)sc1-c1nc(C(F)(F)F)c(Cc2ccc(Cl)c(Cl)c2)c(=O)[nH]1 [Example 46, 2-(5-Amino-2-oxo-1,3-oxathiol-4-yl)-5-(3,4-dichlorobenzyl)-6-(trifluoromethyl)pyrimidin-4(3H)-one]	59	230
Nc1ncnn1-c1nc(C(F)(F)F)c(Oc2ccc(Cl)c(Cl)c2)c(=O)[nH]1 [Example 48, 2-(5-Amino-1H-1,2,4-triazol-1-yl)-5-(3,4-dichlorophenoxy)-6-(trifluoromethyl)pyrimidin-4(3H)-one]	4.2	30000
O=c1[nH]c(-c2cc[nH]n2)nc(C(F)(F)F)c1Cc1ccc(Cl)c(Cl)c1 [Example 50, 5-(3,4-dichlorobenzyl)-2-(1H-pyrazol-3-yl)-6-(trifluoromethyl)pyrimidin-4(3H)-one]	0.2	4.7
Cc1cc(-c2nc(C(F)(F)F)c(Cc3ccc(Cl)c(Cl)c3)c(=O)[nH]2)nn1C [Example 55, 5-(3,4-dichlorobenzyl)-2-(1,5-dimethyl-1H-pyrazol-3-yl)-6-(trifluoromethyl)pyrimidin-4(3H)-one]	4.4	110
Cn1nccc1-c1nc(C(F)(F)F)c(Oc2ccc(Cl)c(Cl)c2)c(=O)[nH]1 [Example 56, 5-(3,4-dichlorophenoxy)-2-(1-methyl-1H-pyrazol-5-yl)-6-(trifluoromethyl)pyrimidin-4(3H)-one]	38	900
Cc1cc(C)n(-c2nc(C(F)(F)F)c(Cc3ccc(Cl)c(Cl)c3)c(=O)[nH]2)n1 [Example 57, 5-(3,4-dichlorobenzyl)-2-(3,5-dimethyl-1H-pyrazol-1-yl)-6-(trifluoromethyl)pyrimidin-4(3H)-one]	83	1300
Nc1[nH]ncc1-c1nc(C(F)(F)F)c(Cc2ccc(Cl)c(Cl)c2)c(=O)[nH]1 [Example 60, 2-(5-amino-1H-pyrazol-4-yl)-5-(3,4-dichlorobenzyl)-6-(trifluoromethyl)pyrimidin-4(3H)-one]	91	180
Cn1ncc(-c2nc(C(F)(F)F)c(Cc3ccc(Cl)c(Cl)c3)c(=O)[nH]2)c1N [Example 61, 2-(5-amino-1-methyl-1H-pyrazol-4-yl)-5-(3,4-dichlorobenzyl)-6-(trifluoromethyl)pyrimidin-4(3H)-one]	36	220
Nc1[nH]ncc1-c1nc(C(F)(F)F)c(Oc2ccc(Cl)c(Cl)c2)c(=O)[nH]1 [Example 62, 2-(5-amino-1H-pyrazol-4-yl)-5-(3,4-dichlorophenoxy)-6-(trifluoromethyl)pyrimidin-4(3H)-one trifluoroacetate]	110	140
O=c1[nH]c(-c2cn[nH]c2)nc(C(F)(F)F)c1Cc1ccc(Cl)c(Cl)c1 [Example 63, 5-(3,4-dichlorobenzyl)-2-(1H-pyrazol-4-yl)-6-(trifluoromethyl)pyrimidin-4(3H)-one]	5.5	100
Nc1nc[nH]c1-c1nc(C(F)(F)F)c(Oc2ccc(Cl)c(Cl)c2)c(=O)[nH]1 [Example 64, 2-(4-amino-1H-imidazol-5-yl)-5-(3,4-dichlorophenoxy)-6-(trifluoromethyl)pyrimidin-4(3H)-one]	320	6500
O=c1[nH]c(-c2cn[nH]c2)nc(C(F)(F)F)c1Oc1ccc(Cl)c(Cl)c1 [Example 66, 5-(3,4-dichlorophenoxy)-2-(1H-pyrazol-4-yl)-6-(trifluoromethyl)pyrimidin-4(3H)-one]	4.4	110
Cn1ncc(-c2nc(C(F)(F)F)c(Oc3ccc(Cl)c(C(F)(F)F)c3)c(=O)[nH]2)c1N [Example 67, 2-(5-amino-1-methyl-1H-pyrazol-4-yl)-5-[4-chloro-3-(trifluoromethyl)phenoxy]-6-(trifluoromethyl)pyrimidin-4(3H)-one]	8.3	150
Cn1ncc(-c2nc(C(F)(F)F)c(Oc3ccc(Cl)c(Cl)c3)c(=O)[nH]2)c1N [Example 68, 2-(5-amino-1-methyl-1H-pyrazol-4-yl)-5-(3,4-dichlorophenoxy)-6-(trifluoromethyl)pyrimidin-4(3H)-on]	27	310
Nc1nc[nH]c1-c1nc(C(F)(F)F)c(Oc2ccc(Cl)c(C(F)(F)F)c2)c(=O)[nH]1 [Example 69, 2-(4-amino-1H-imidazol-5-yl)-5-[4-chloro-3-(trifluoromethyl)phenoxy]-6-(trifluoromethyl)pyrimidin-4(3H)-one]	130	1100
O=c1[nH]c(-c2cc[nH]n2)nc(C(F)(F)F)c1Cc1ccc(Cl)c(C(F)(F)F)c1 [Example 72, 5-[4-chloro-3-(trifluoromethyl)benzyl]-2-(1H-pyrazol-3-yl)-6-(trifluoromethyl)pyrimidin-4(3H)-one]	0.7	19
CC(C)c1nc(-c2nc(C(F)(F)F)c(Oc3ccc(Cl)c(Cl)c3)c(=O)[nH]2)no1 [Example 80, 5-(3,4-Dichlorophenoxy)-2-[5-(propan-2-yl)-1,2,4-oxadiazol-3-yl]-6-(trifluoromethyl)pyrimidin-4(3H)-one x N,N-diisopropylethylamine]	32	160
COCc1nc(-c2nc(C(F)(F)F)c(Oc3ccc(Cl)c(Cl)c3)c(=O)[nH]2)no1 [Example 81, 5-(3,4-dichlorophenoxy)-2-[5-(methoxymethyl)-1,2,4-oxadiazol-3-yl]-6-(trifluoromethyl)pyrimidin-4(3H)-one x N,N-diisopropylethylamine]	19	110
O=c1[nH]c(-c2noc(C3CC3)n2)nc(C(F)(F)F)c1Oc1ccc(Cl)c(Cl)c1 [Example 82, 2-(5-cyclopropyl-1,2,4-oxadiazol-3-yl)-5-(3,4-dichlorophenoxy)-6-(trifluoromethyl)pyrimidin-4(3H)-one x N,N-diisopropylethylamine]	19	150
O=c1[nH]c(-c2noc(C(F)(F)F)n2)nc(C(F)(F)F)c1Oc1ccc(Cl)c(Cl)c1 [Example 84, 5-(3,4-Dichlorophenoxy)-6-(trifluoromethyl)-2-[5-(trifluoromethyl)-1,2,4-oxadiazol-3-yl]pyrimidin-4(3H)-one]	9.2	86
N=c1[nH]c(-c2nc(C(F)(F)F)c(Oc3ccc(Cl)c(Cl)c3)c(=O)[nH]2)no1 [Example 85, 5-(3,4-Dichlorophenoxy)-2-(5-imino-4,5-dihydro-1,2,4-oxadiazol-3-yl)-6-(trifluoromethyl)pyrimidin-4(3H)-one]	31	96
O=c1[nH]c(-c2nc(C(F)(F)F)c(Oc3ccc(Cl)c(Cl)c3)c(=O)[nH]2)ns1 [Example 86, 5-(3,4-Dichlorophenoxy)-2-(5-oxo-4,5-dihydro-1,2,4-thiadiazol-3-yl)-6-(trifluoromethyl)pyrimidin-4(3H)-one]	7.7	100
